# Experiments:
# [1] = tested on: HIV-1_89.6 particles produced from 293 T cells; experiment: TEM analysis of HIV-1 particle morphology; assay type: cell-based; details: viruses produced from treated 293T cells; 1 μM
# Procedure: 293T cells were transfected with plasmids containing proviral clones encoding WT HIV-1 89.6 using polyethylenimine (PEI). After 6 hrs, cells were rinsed with DPBS gently, and then cells were resuspended in a fresh media with or without the inhibitor (1 μM, final). At 96 hrs post-transfection, cell cultures were centrifuged (1,800 xg) and filtered through 0.45 μm filter to remove cells and any cell debris, and viruses were harvested by centrifugation at 100,000 xg for 1.5 hrs in the presence of TNE sucrose buffer (5% sucrose, final). The pellets were fixed in a buffer containing 0.1 M Na cacodylate at pH 7.4 and 2.5% Glutaraldehyde, and submitted to Emory Integrated Core Facilities for sectioning, followed by TEM. Virus pellets were dehydrated in a graduated ethanol series and embedded in Epon resin. Ultrathin sections were stained using uranyl acetate and observed under a transmission electron microscope (JEOL JEM-1400), equipped with Gatan CCD camera at the Emory Integrated Electron Microscopy Core. Total of approximately 1,000 virions each (with or without the inhibitor treatment) were captured in the images obtained for comparisons in virion morphology.
# [2] = tested on: HIV-1 GFP vector in pre-treated Jurkat cells; experiment: HIV-1 inhibition in infecting cells (early stage); assay type: cell-based; details: 60 nM in Jurkat cells; vector from untreated 293T cells
# Procedure: To test for STP0404’s inhibitory effects during the late stage of HIV-1 life cycle such as the maturation step, we employed the “producing cells” setup. In T75 tissue culture flasks, 293T cells were pre-treated with and without STP0404 (0 and 60 nM) for 2 hrs prior to transfection with pD3-HIV (13 μg) and pVSV-g (6 μg), using 0.3 mg/ml polyethylenimine. After 24 hrs incubation at 37°C, the supernatant was removed and replaced with fresh media with and without STP0404 (0 and 60 nM). 48 hrs later, D3-HIV vector from each treatment group was concentrated from the collected supernatant via ultracentrifugation (22,000 rpm for 2 hrs). Following p24 quantification, using 96-well plates, similar amount of respective D3-HIV vector was used to transduce Jurkat cells in triplicates for 48 hrs. The cells were harvested and fixed with 3.7% formaldehyde before being analyzed for GFP expression using FACS (Miltenyi Biotec, VYB). Separately, the “infecting cells” setup was used to investigate the inhibitory effects of STP0404 against the early stages of HIV-1 life cycle such as the integration and transcription steps. […] All data were analyzed using GraphPad Prism (Version 9). Unpaired t tests were performed to determine the significance of the readings in respective experimental set up relative to the untreated controls. […]
# [3] = Four-week oral dose toxicology study in dogs (GLP); assay type: in vivo, beagle dogs; details: for NOAEL at 4 weeks: both sexes, beagle
# Procedure: STP0404 was administered orally to 10 or 15 SD rats/sex/group at dose levels of 100, 300 and 600 mg/kg/day for 4 weeks to evaluate its potential toxicity. The reversibility of any effects was also assessed following a 2-week untreated recovery period. Control animals (15 animals/sex) received the vehicle, 0.5 w/v% methylcellulose solution, in a similar manner for comparison. In addition, plasma STP0404 concentrations were determined using TK satellite animals (3 animals/sex/group) to evaluate systemic exposure of the animals to the test article. (Study no. YL18402). STP0404 was administered orally as a capsule to 4 or 6 dogs/sex/group at dose levels of 30, 60 and 90 mg/kg/day for 4 weeks to evaluate its potential toxicity. Control animals (6 animals/sex) received empty gelatin capsules in a similar manner for comparison. The reversibility of any effects was also assessed following a 2-week untreated recovery period (2 animals/sex/group for the control and 90 mg/kg/day groups). In addition, plasma STP0404 concentrations were determined using all tested animals (including control group) to evaluate systemic exposure of the animals to the test article (Study no. YL18403). The test was performed according to the Standard Operating Procedures (SOP) the Good Laboratory Practice (GLP) system of the INA Research.
# bone marrow cells = experiment: Micronucleus study by oral administration in rats (GLP); assay type: in vivo, SD rats; details: 500, 1000 and 2000 mg/kg/day
# Procedure: Bacterial reverse mutation assay (Study no. YL18407). The bacterial reverse mutation assay of STP0404 was performed in two conditions (with or without metabolic activation) for the dose range-finding test (doses of STP0404rangingfrom 2.29 to 5,000μg/plate) and the main test (doses of STP0404 ranging from 19.5 to 5,000 μg/plate) in comparison with negative control (DMSO) and active controls (sodium azide, 2-(2-furyl)-3-(5-nitro-2-furyl) acrylamide, 2-aminoanthracene, 9-aminoacridine hydrochloride). Salmonella typhimurium (TA100, TA1535) and Escherichia coli (WP2uvrA) were used for detection of base-pair substitutions. Salmonella typhimurium (TA98, TA1537) was used for detection of frameshift mutations. Chromosomal Aberration Test of STP0404 in Cultured Mammalian Cells (Study no. YL18408). Presence/absence of genotoxicity of STP0404 was determined using chromosomal aberration test carried out in CHL/IU cells. The test comprised a dose range-finding test and a main test. Micronucleus Study of STP0404 by oral administration in Rats (Study no. YL18409). STP0404 was administered orally to SD rats (3/group in preliminary test and 6/group in the main test) at dose levels of 500, 1000 and 2000 mg/kg/day once daily for 2 days in a two-test study (preliminary test and main test) to investigate the genotoxicity profile of STP0404. […] Bone marrow smear slides were evaluated (INA Research, Japan).
smiles,measurement,setting,value
Cc1nc2c(c(C)c(C)n2Cc2cnn(C)c2)c(-c2ccc(Cl)cc2)c1[C@H](OC(C)(C)C)C(=O)O [STP0404],localization of viral RNA genomes in virus particles (TEM),[1],viral RNA genomes outside of the capsid
same,"transduction efficiency, infecting cells",[2],no reduction in transduction efficiency
same,single dose well tolerated up to,"[3]; beagle dogs, oral",up to 500 mg/kg
same,NOAEL at 4 weeks,"[3]; dog, in vivo, dogs, 4-week once daily oral dose",90 mg/kg
same,NOAEL at 4 weeks,"[3]; dog, in vivo, male and female dogs, four-week oral",90 mg/kg/day
same,histopathology lesions (in words),"[3]; dog, in vivo",lesions were not observed in any organ
same,abnormal changes (in words),"[3]; dogs, 30 mg/kg, 60 mg/kg and 90 mg/kg, four-week oral",no abnormal changes were noted at any dose level
same,highest non-severely toxic dose (HNSTD),"[3]; four-week dog toxicology study, ICH guidance S9",90 mg/kg/day
same,bone marrow cell proliferation inhibitory potential,bone marrow cells,lacked
same,micronucleus-inducing potential,bone marrow cells,lacked

# Reference: publication PMC8297771 (PLoS Pathogens, 2021)
